Test results reported in PubChem BioAssay (NCI).
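Test compounds were applied to cells in 96-well plates for 48 hours at 5 doses. Definition used: TGI = concentration required for complete inhibition of growth.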

Columns and labels:
Test in all cases: NCI anticancer screen, dose series, 48 h
DLD-1 colon = system: DLD-1 colon
OVCAR-3 ovarian = system: OVCAR-3 ovarian
NCI-H460 lung = system: NCI-H460 lung
SF-295 CNS = system: SF-295 CNS
HCT-116 colon = system: HCT-116 colon
ACHN renal = system: ACHN renal
NCI-H522 lung = system: NCI-H522 lung
M19-MEL melanoma = system: M19-MEL melanoma
UO-31 renal = system: UO-31 renal
COLO 205 colon = system: COLO 205 colon
DMS 273 small cell lung = system: DMS 273 small cell lung
MALME-3M melanoma = system: MALME-3M melanoma
SNB-78 CNS = system: SNB-78 CNS
A498 renal = system: A498 renal
XF 498 CNS = system: XF 498 CNS
PC-3 prostate = system: PC-3 prostate
MDA-N = system: MDA-N
BT-549 breast = system: BT-549 breast
T-47D breast = system: T-47D breast
MDA-MB-435 = system: MDA-MB-435

Row | Structure (SMILES) | TGI (DLD-1 colon) | TGI (OVCAR-3 ovarian) | TGI (NCI-H460 lung) | TGI (SF-295 CNS) | TGI (HCT-116 colon) | TGI (ACHN renal) | TGI (NCI-H522 lung) | TGI (M19-MEL melanoma) | TGI (UO-31 renal) | TGI (COLO 205 colon) | TGI (DMS 273 small cell lung) | TGI (MALME-3M melanoma) | TGI (SNB-78 CNS) | TGI (A498 renal) | TGI (XF 498 CNS) | TGI (PC-3 prostate) | TGI (MDA-N) | TGI (BT-549 breast) | TGI (T-47D breast) | TGI (MDA-MB-435)
1 | CCOC(=O)/C(C#N)=c1/s/c(=C(\O)N/N=C/c2ccc(OC)cc2)c(=N)n1-c1ccccc1 | > 100 µM | > 100 µM | > 100 µM | > 100 µM | > 100 µM | > 100 µM | > 100 µM | > 100 µM | > 100 µM | > 100 µM | – | – | – | – | – | – | – | – | – | –
2 | CCCCCCCCCCCCOC(=N)N1CCOCC1 | 12.7 µM | 30.3 µM | 30.2 µM | 31.7 µM | 22.6 µM | 27.7 µM | 30.4 µM | 17.7 µM | 26.8 µM | 3.45 µM | 25.1 µM | 34.5 µM | 27.8 µM | > 52.3 µM | 29.7 µM | – | – | – | – | –
3 | CS(=O)(=O)Sc1ccc(Cl)cc1 | 27.2 µM | 19.3 µM | 27.9 µM | 9.21 µM | 18.6 µM | – | 9.47 µM | 21.2 µM | 13.3 µM | 12.7 µM | 17.4 µM | 26.6 µM | 15.6 µM | 7.48 µM | 22.7 µM | – | – | – | – | –
4 | Nc1ccc(Oc2ccc(C3(c4ccc(Oc5ccc(N)c(O)c5)cc4)C4CC5CC(C4)CC3C5)cc2)cc1O | – | 3.35 µM | – | 14.9 µM | – | 3.18 µM | 3.06 µM | – | 3.82 µM | 1.72 µM | – | 3.92 µM | – | 31 µM | – | 3.18 µM | 4.75 µM | 5.27 µM | > 77.2 µM | 5.22 µM
5 | O=c1cc(O)c1=O | – | > 100 µM | > 100 µM | > 100 µM | > 100 µM | > 100 µM | > 100 µM | – | > 100 µM | > 100 µM | – | > 100 µM | – | > 100 µM | – | > 100 µM | > 100 µM | > 100 µM | > 100 µM | > 100 µM
